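Growth conditions: 96-well plates. Treatment: test compound, 48 hours, 5 concentrations. Analysis: linear interpolation between bracketing concentrations; unreached endpoints set to highest concentration. Abbreviation: GI50, concentration required for 50% inhibition of growth. TGI: concentration producing complete growth inhibition.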
Assays:
Assay in all cases: inhibition of tumour cell growth, NCI panel, 48 h
[1] = test system: SN12C renal
[2] = test system: SK-OV-3 ovarian
[3] = test system: HOP-62 NSCLC
[4] = test system: CCRF-CEM leukemia
[5] = test system: 786-0 renal
[6] = test system: MDA-MB-435
[7] = test system: OVCAR-8 ovarian
[8] = test system: SF-268 CNS
[9] = test system: SK-MEL-28 melanoma
[10] = test system: KM12 colon
[11] = test system: LOX IMVI melanoma
[12] = test system: SW-620 colon
[13] = test system: RPMI-8226 leukemia
[14] = test system: K-562 leukemia
[15] = test system: SR leukemia
[16] = test system: HCT-15 colon
[17] = test system: M14 melanoma
[18] = test system: HOP-92 NSCLC
[19] = test system: EKVX NSCLC
[20] = test system: SK-MEL-2 melanoma
[21] = test system: IGROV1 ovarian
[22] = test system: NCI-H522 lung
[23] = test system: NCI/ADR-RES ovarian
[24] = test system: MCF7 breast
[25] = test system: CAKI-1 renal
[26] = test system: A549 NSCLC
[27] = test system: UACC-257 melanoma
[28] = test system: HCC-2998 colon
[29] = test system: NCI-H460 lung
[30] = test system: ACHN renal
[31] = test system: HL-60(TB) leukemia
[32] = test system: MDA-MB-231 breast
[33] = test system: OVCAR-5 ovarian
[34] = test system: RXF 393 renal
[35] = test system: HCT-116 colon
[36] = test system: UACC-62 melanoma
[37] = test system: SK-MEL-5 melanoma
[38] = test system: MDA-MB-468 breast
[39] = test system: BT-549 breast
[40] = test system: HS 578T breast
[41] = test system: DU-145 prostate
[42] = test system: NCI-H226 lung
[43] = test system: A498 renal
[44] = test system: U251 CNS
[45] = test system: UO-31 renal
[46] = test system: MOLT-4 leukemia
[47] = test system: SF-539 CNS
[48] = test system: OVCAR-3 ovarian
[49] = test system: PC-3 prostate
[50] = test system: SNB-75 CNS
[51] = test system: OVCAR-4 ovarian
[52] = test system: COLO 205 colon
[53] = test system: SF-295 CNS
[54] = test system: NCI-H23 lung
[55] = test system: TK-10 renal
[56] = test system: MALME-3M melanoma
[57] = test system: T-47D breast
[58] = test system: SNB-19 CNS
[59] = test system: HT29 colon

Compound: Fc1cccc(CNc2nc(SCCN3CCOCC3)nc3c2cnn3CC(Cl)c2ccc(Br)cc2)c1 (stereo not drawn)
- GI50 [1]: 12 µM
- TGI [1]: > 100 µM
- GI50 [2]: > 100 µM
- TGI [2]: > 100 µM
- GI50 [3]: 25.8 µM
- TGI [3]: > 100 µM
- GI50 [4]: 5.41 µM
- TGI [4]: > 100 µM
- GI50 [5]: 5.7 µM
- TGI [5]: > 100 µM
- GI50 [6]: 11.5 µM
- TGI [6]: > 100 µM
- GI50 [7]: 10.7 µM
- TGI [7]: > 100 µM
- GI50 [8]: 10 µM
- TGI [8]: > 100 µM
- GI50 [9]: 8.51 µM
- TGI [9]: > 100 µM
- GI50 [10]: 4.81 µM
- TGI [10]: > 100 µM
- GI50 [11]: 2.9 µM
- TGI [11]: 11.6 µM
- GI50 [12]: 2.89 µM
- TGI [12]: 10.4 µM
- GI50 [13]: 4.33 µM
- TGI [13]: > 100 µM
- GI50 [14]: 2.69 µM
- TGI [14]: > 100 µM
- GI50 [15]: 2.5 µM
- TGI [15]: > 100 µM
- GI50 [16]: 1.94 µM
- TGI [16]: 4.5 µM
- GI50 [17]: 7.96 µM
- TGI [17]: > 100 µM
- GI50 [18]: 13.4 µM
- TGI [18]: > 100 µM
- GI50 [19]: 8.05 µM
- TGI [19]: > 100 µM
- GI50 [20]: 11.9 µM
- TGI [20]: 37.5 µM
- GI50 [21]: 34.4 µM
- TGI [21]: > 100 µM
- GI50 [22]: 8.22 µM
- TGI [22]: > 100 µM
- GI50 [23]: 4.52 µM
- TGI [23]: > 100 µM
- GI50 [24]: 4.61 µM
- TGI [24]: > 100 µM
- GI50 [25]: 5.07 µM
- TGI [25]: > 100 µM
- GI50 [26]: 4.88 µM
- TGI [26]: > 100 µM
- GI50 [27]: 13.9 µM
- TGI [27]: > 100 µM
- GI50 [28]: 3.46 µM
- TGI [28]: > 100 µM
- GI50 [29]: 5.04 µM
- TGI [29]: > 100 µM
- GI50 [30]: 5.83 µM
- TGI [30]: > 100 µM
- GI50 [31]: 3.85 µM
- TGI [31]: 50.4 µM
- GI50 [32]: 4.25 µM
- TGI [32]: 52.6 µM
- GI50 [33]: 14.1 µM
- TGI [33]: > 100 µM
- GI50 [34]: 2.44 µM
- TGI [34]: 21.3 µM
- GI50 [35]: 4.82 µM
- TGI [35]: > 100 µM
- GI50 [36]: 8.76 µM
- TGI [36]: 23.8 µM
- GI50 [37]: 7.54 µM
- TGI [37]: 20.3 µM
- GI50 [38]: 2.62 µM
- TGI [38]: 8.48 µM
- GI50 [39]: 21.2 µM
- TGI [39]: 57.4 µM
- GI50 [40]: 8.83 µM
- TGI [40]: > 100 µM
- GI50 [41]: 39 µM
- TGI [41]: > 100 µM
- GI50 [42]: 13.2 µM
- TGI [42]: 98.4 µM
- GI50 [43]: 30.4 µM
- TGI [43]: > 100 µM
- GI50 [44]: 6.12 µM
- TGI [44]: > 100 µM
- GI50 [45]: 5.11 µM
- TGI [45]: > 100 µM
- GI50 [46]: 2.58 µM
- TGI [46]: 15.7 µM
- GI50 [47]: 4.58 µM
- TGI [47]: > 100 µM
- GI50 [48]: 53.1 µM
- TGI [48]: > 100 µM
- GI50 [49]: 6.58 µM
- TGI [49]: > 100 µM
- GI50 [50]: 6.5 µM
- TGI [50]: > 100 µM
- GI50 [51]: 8.81 µM
- TGI [51]: > 100 µM
- GI50 [52]: 4.31 µM
- TGI [52]: 20.5 µM
- GI50 [53]: 4.16 µM
- TGI [53]: > 100 µM
- GI50 [54]: 17 µM
- TGI [54]: > 100 µM
- GI50 [55]: 43.8 µM
- TGI [55]: > 100 µM
- GI50 [56]: 3.02 µM
- TGI [56]: 24.9 µM
- GI50 [57]: 3.28 µM
- TGI [57]: > 100 µM
- GI50 [58]: 16.2 µM
- TGI [58]: > 100 µM
- GI50 [59]: 1.86 µM
- TGI [59]: 3.82 µM

Reference: PubChem BioAssay (NCI)
